Measurements reported in the supplement of paper PMC10307832.

Legend:
Assay in all cases: relative viability (nuclei count vs DMSO), 5 days (fraction); higher = more cells survive
SGI-1776 + Pictilisib = compound: CN1CCC(CNc2ccc3ncc(-c4cccc(OC(F)(F)F)c4)n3n2)CC1 [SGI-1776] + CS(=O)(=O)N1CCN(Cc2cc3nc(-c4cccc5[nH]ncc45)nc(N4CCOCC4)c3s2)CC1 [Pictilisib] (partner 1 µM)
Procedure, shortened: (§1)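 A single step with final 0.05% Triton X-100, 1% formaldehyde and 1 ug/ml Hoechst fixed the cells and stained nuclei 5 days after treatment. Lung cancer cell lines in 1536-well plates had been treated by pin tool the day after seeding with one drug alone or a fixed anchor-drug dose plus five library-drug doses (not always all listed) in √10 steps, and nuclei were counted on 4× images. Relative viability is the ratio of nuclei in treated wells to nuclei in vehicle wells, taken as the median of duplicate plates.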

[1] = compound: C1COCCN1C2=NC(=NC3=C2OC4=C3C=CC=N4)C5=CC(=CC=C5)NC(=O)C6=CN=C(C=C6)N + O=C(c1cc(Cc2n[nH]c(=O)c3ccccc23)ccc1F)N1CCN(C(=O)C2CC2)CC1 [Olaparib] (partner 8 µM)
Procedure, shortened: as §1

SGI-1776 + Dasatinib = compound: CN1CCC(CNc2ccc3ncc(-c4cccc(OC(F)(F)F)c4)n3n2)CC1 [SGI-1776] + Cc1nc(Nc2ncc(C(=O)Nc3c(C)cccc3Cl)s2)cc(N2CCN(CCO)CC2)n1 [Dasatinib] (partner 0.075 µM)
Procedure, shortened: as §1

SGI-1776 + AZD7762 = compound: CN1CCC(CNc2ccc3ncc(-c4cccc(OC(F)(F)F)c4)n3n2)CC1 [SGI-1776] + NC(=O)Nc1cc(-c2cccc(F)c2)sc1C(=O)N[C@H]1CCCNC1 [AZD7762] (partner 0.2 µM)
Procedure, shortened: as §1

Cell Line | relative viability (SGI-1776 + Pictilisib; first compound 0.08 µM) | relative viability (SGI-1776 + Pictilisib; first compound 0.8 µM) | relative viability (SGI-1776 + Pictilisib; first compound 2.53 µM) | relative viability (SGI-1776 + Pictilisib; first compound 8 µM) | relative viability ([1]; first compound 0.02 µM) | relative viability ([1]; first compound 0.06325 µM) | relative viability ([1]; first compound 0.2 µM) | relative viability ([1]; first compound 0.6325 µM) | relative viability ([1]; first compound 2 µM) | relative viability (SGI-1776 + Dasatinib; first compound 0.08 µM) | relative viability (SGI-1776 + Dasatinib; first compound 0.8 µM) | relative viability (SGI-1776 + Dasatinib; first compound 2.53 µM) | relative viability (SGI-1776 + Dasatinib; first compound 8 µM) | relative viability (SGI-1776 + AZD7762; first compound 0.08 µM) | relative viability (SGI-1776 + AZD7762; first compound 0.8 µM) | relative viability (SGI-1776 + AZD7762; first compound 2.53 µM) | relative viability (SGI-1776 + AZD7762; first compound 8 µM)
H3255 | 0.479 | 0.451 | 0.456 | 0.392 | 0.522 | 0.531 | 0.531 | 0.56 | 0.436 | 0.4 | 0.371 | 0.378 | 0.277 | 1.05 | 0.899 | 0.939 | 0.728
HARA | 0.445 | 0.373 | 0.306 | 0.243 | 0.845 | 0.727 | 1.09 | 0.764 | 0.75 | 0.31 | 0.178 | 0.207 | 0.289 | 0.345 | 0.306 | 0.292 | 0.218
HCC-15 | 0.657 | 0.839 | 0.665 | 0.468 | 0.757 | 0.775 | 0.735 | 0.671 | 0.628 | 0.577 | 0.551 | 0.466 | 0.382 | 1.05 | 1.12 | 1.34 | 1.21
HCC-78 | 0.27 | 0.231 | 0.199 | 0.164 | 0.751 | 0.896 | 0.85 | 0.842 | 0.583 | 0.416 | 0.455 | 0.369 | 0.366 | 0.665 | 0.726 | 0.579 | 0.538
HCC-366 | 0.158 | 0.192 | 0.137 | 0.0802 | 0.488 | 0.419 | 0.322 | 0.412 | 0.218 | 0.595 | 0.669 | 0.517 | 0.524 | 0.248 | 0.263 | 0.298 | 0.26
HCC-827 | 1.02 | 1.21 | 1.09 | 0.877 | 0.567 | 0.61 | 0.771 | 0.575 | 0.589 | 0.352 | 0.33 | 0.255 | 0.227 | 0.25 | 0.26 | 0.241 | 0.146
HOP-62 | 0.849 | 0.734 | 1.08 | 0.607 | 0.632 | 0.5 | 0.447 | 0.7 | 0.255 | 0.724 | 0.679 | 0.531 | 0.597 | 0.84 | 0.574 | 0.613 | 0.646
LC-2-ad | 0.428 | 0.522 | 0.544 | 0.254 | 0.678 | 0.705 | 0.682 | 0.846 | 0.648 | 0.726 | 0.521 | 0.397 | 0.402 | 0.886 | 0.901 | 0.771 | 0.691
LCLC-97TM1 | 0.25 | 0.296 | 0.196 | 0.179 | 0.533 | 0.388 | 0.341 | 0.33 | 0.287 | 0.783 | 0.938 | 0.85 | 0.949 | 0.302 | 0.313 | 0.204 | 0.304
